Reference: US6852755B1 (priority 1999, dated 2005)

Tested on: breast carcinoma xenograft (50% MDA MB361 cells expressing β-galactosidase plus 50% MDA MB361-STCPG2(O)3 cells expressing surface tethered carboxypeptidase G2 …)
Set-up: species or system Nu/Nu BalbC mouse
Conditions: mouse, in vivo

Structure (SMILES) | time up to which 50% survival was found post-treatment | time for which a 50% survival rate was provided
O=C(O)CC[C@H](NC(=O)c1ccc(N(CCCl)CCCl)c(F)c1)C(=O)O [B, {3-fluoro-4-[bis(2-chloroethyl)amino]benzoyl}-L-glutamic acid] | about 70 days | 
O=C(O)CC[C@H](NC(=O)c1cc(F)c(N(CCI)CCI)c(F)c1)C(=O)O [Example 1, {3,5-difluoro-4-[bis(2-iodoethyl)amino]benzoyl}-L-glutamic acid] |  | over 200 days
